From patent US20230203059A1, “MACROCYCLIC JAK INHIBITOR AND USES THEREOF” (Biopolar Hongye (Guangdong) Pharmaceutical Co. Ltd., priority 2020, published 2023)

What was measured:
Format in all cases: biochemical
[1] = biological target: TYK2 (Homo sapiens, UniProt P29597); test: JAK kinase activity, homogeneous time-resolved fluorescence (TYK2 reaction system); conditions: ATP 2 μM, TYK2 protein 0.2 ng/μL; read-out: TYK 2 activity
How it was run: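 Activity read as the 665 nm/615 nm ratio after adding EDTA-containing detection mix with anti-phospho-substrate antibody and XL-615. Beforehand, 0.2 ng/μL TYK2, 2 μM ATP, substrate and compound reacted 1 h in pH 7.0 Hepes buffer with MgCl2 and DTT. IC50 fitted with Hill-slope equation.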

[2] = biological target: JAK2 (Homo sapiens, UniProt O60674); test: JAK kinase activity, homogeneous time-resolved fluorescence (JAK2 reaction system); conditions: ATP 2 μM, JAK2 protein 0.01 ng/μL
How it was run: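 IC50 derived by Hill-equation fit of the 665/615 nm time-resolved fluorescence ratio after EDTA-containing detection mix with anti-phosphosubstrate antibody. Preceding 1 h reaction contained 2 μM ATP, 0.01 ng/μL JAK2, substrate, 50 mM Hepes pH 7.0, 5 mM MgCl2, 1 mM DTT.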

[3] = biological target: T1, JAK3 (Homo sapiens, UniProt P52333); test: JAK kinase activity, homogeneous time-resolved fluorescence (JAK3 reaction system); conditions: ATP 2 μM, JAK3 protein 0.04 ng/μL; read-out: JAK 3 activity
T1 sequence (P52333 1-1124): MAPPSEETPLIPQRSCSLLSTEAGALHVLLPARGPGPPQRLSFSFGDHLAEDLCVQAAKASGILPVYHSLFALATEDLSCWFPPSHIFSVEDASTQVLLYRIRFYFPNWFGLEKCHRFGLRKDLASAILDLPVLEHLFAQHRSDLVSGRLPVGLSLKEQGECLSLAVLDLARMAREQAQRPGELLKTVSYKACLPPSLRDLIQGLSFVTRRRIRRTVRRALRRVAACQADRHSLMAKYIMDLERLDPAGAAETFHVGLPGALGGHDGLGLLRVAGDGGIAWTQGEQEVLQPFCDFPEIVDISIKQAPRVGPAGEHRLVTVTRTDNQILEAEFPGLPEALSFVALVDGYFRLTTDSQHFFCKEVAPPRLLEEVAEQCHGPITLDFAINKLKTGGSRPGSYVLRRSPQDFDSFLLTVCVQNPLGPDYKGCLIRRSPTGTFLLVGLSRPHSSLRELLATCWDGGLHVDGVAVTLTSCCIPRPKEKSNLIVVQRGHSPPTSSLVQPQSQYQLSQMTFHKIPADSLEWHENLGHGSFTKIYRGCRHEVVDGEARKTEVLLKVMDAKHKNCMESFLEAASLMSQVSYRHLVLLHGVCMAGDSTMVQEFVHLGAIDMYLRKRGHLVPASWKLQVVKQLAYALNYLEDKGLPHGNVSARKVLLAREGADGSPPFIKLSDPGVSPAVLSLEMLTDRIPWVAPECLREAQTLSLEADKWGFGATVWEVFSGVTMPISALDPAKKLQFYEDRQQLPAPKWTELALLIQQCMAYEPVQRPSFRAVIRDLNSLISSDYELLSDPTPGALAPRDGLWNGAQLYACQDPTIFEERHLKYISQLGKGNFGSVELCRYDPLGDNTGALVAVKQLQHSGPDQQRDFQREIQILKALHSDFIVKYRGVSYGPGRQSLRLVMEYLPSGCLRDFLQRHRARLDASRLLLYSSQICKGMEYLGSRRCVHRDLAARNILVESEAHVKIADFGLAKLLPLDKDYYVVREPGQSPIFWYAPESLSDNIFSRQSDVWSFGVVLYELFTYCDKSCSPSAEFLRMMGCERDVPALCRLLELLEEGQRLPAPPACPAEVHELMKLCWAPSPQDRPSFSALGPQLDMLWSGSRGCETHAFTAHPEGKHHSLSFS

[4] = biological target: JAK1 (Homo sapiens, UniProt P23458); test: JAK kinase activity, homogeneous time-resolved fluorescence (JAK1 reaction system); conditions: ATP 2 μM, JAK1 protein 0.2 ng/μL; read-out: JAK 1 activity
How it was run: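 Kinase activity read as the 665 nm/615 nm time-resolved fluorescence ratio (320 nm excitation) after EDTA-containing antibody and XL-615 addition. Reaction ran 1 h at pH 7.0 (Hepes, MgCl2, DTT) with 0.2 ng/μL JAK1 and ATP at 2 μM. IC50 derived by Hill-slope fit.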

TYK2, sequence (P29597 whole entry): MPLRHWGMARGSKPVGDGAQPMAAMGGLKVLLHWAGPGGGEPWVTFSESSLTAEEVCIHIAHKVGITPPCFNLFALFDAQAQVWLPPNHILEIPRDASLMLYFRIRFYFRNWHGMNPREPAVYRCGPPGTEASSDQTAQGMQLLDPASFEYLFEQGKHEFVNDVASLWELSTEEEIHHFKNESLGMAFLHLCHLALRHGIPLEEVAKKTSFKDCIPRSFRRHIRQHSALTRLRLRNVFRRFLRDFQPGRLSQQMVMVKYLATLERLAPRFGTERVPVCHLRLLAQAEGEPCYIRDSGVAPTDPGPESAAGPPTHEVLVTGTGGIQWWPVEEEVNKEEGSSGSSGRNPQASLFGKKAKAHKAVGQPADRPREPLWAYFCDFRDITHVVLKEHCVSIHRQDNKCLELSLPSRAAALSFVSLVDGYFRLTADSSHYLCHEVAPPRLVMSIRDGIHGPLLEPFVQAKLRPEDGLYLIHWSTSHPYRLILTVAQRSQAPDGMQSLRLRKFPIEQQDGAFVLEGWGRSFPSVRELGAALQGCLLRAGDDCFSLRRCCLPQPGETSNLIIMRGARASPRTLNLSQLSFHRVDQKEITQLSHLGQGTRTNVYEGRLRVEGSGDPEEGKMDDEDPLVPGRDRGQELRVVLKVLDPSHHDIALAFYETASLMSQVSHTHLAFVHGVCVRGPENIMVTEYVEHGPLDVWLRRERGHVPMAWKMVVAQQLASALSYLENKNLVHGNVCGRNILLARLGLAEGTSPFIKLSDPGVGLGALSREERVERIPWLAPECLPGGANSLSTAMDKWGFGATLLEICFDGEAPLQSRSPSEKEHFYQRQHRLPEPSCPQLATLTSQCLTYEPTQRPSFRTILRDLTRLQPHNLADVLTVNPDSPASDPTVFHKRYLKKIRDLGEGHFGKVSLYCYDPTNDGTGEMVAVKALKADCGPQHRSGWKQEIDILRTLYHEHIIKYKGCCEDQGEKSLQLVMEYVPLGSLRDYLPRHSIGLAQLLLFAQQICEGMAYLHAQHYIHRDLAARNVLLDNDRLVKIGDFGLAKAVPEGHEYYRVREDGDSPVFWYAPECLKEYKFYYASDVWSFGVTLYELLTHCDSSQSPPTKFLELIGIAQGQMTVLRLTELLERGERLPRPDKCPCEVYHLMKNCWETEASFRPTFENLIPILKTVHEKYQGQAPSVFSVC
JAK2, sequence (O60674 whole entry): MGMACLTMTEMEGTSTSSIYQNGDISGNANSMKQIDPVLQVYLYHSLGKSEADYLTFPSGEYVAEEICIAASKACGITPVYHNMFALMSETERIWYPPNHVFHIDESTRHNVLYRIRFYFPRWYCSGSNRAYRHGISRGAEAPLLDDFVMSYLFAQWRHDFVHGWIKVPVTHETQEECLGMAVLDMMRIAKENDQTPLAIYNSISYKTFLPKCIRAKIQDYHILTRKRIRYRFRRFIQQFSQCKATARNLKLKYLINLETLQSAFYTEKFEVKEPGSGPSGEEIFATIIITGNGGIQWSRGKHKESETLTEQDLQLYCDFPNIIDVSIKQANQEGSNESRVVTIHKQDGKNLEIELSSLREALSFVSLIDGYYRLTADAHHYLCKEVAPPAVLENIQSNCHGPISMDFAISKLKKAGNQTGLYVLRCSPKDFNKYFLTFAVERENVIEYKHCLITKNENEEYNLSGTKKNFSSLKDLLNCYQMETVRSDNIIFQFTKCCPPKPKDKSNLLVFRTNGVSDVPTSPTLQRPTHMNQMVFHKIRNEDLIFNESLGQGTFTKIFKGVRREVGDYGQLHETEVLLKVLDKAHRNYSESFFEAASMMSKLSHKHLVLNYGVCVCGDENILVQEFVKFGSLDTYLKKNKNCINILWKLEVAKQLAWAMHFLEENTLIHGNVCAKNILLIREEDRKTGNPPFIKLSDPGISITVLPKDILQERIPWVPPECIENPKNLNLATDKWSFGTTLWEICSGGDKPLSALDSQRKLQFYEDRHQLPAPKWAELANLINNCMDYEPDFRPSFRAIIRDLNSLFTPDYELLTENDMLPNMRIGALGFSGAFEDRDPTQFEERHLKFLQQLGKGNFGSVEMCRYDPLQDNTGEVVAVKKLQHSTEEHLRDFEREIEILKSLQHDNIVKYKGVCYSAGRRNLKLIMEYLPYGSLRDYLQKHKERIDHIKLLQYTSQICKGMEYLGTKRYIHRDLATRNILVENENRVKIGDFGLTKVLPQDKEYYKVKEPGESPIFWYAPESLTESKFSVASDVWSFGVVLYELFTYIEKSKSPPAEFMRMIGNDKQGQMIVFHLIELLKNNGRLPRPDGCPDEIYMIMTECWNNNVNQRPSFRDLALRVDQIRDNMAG
JAK1, sequence (P23458 whole entry): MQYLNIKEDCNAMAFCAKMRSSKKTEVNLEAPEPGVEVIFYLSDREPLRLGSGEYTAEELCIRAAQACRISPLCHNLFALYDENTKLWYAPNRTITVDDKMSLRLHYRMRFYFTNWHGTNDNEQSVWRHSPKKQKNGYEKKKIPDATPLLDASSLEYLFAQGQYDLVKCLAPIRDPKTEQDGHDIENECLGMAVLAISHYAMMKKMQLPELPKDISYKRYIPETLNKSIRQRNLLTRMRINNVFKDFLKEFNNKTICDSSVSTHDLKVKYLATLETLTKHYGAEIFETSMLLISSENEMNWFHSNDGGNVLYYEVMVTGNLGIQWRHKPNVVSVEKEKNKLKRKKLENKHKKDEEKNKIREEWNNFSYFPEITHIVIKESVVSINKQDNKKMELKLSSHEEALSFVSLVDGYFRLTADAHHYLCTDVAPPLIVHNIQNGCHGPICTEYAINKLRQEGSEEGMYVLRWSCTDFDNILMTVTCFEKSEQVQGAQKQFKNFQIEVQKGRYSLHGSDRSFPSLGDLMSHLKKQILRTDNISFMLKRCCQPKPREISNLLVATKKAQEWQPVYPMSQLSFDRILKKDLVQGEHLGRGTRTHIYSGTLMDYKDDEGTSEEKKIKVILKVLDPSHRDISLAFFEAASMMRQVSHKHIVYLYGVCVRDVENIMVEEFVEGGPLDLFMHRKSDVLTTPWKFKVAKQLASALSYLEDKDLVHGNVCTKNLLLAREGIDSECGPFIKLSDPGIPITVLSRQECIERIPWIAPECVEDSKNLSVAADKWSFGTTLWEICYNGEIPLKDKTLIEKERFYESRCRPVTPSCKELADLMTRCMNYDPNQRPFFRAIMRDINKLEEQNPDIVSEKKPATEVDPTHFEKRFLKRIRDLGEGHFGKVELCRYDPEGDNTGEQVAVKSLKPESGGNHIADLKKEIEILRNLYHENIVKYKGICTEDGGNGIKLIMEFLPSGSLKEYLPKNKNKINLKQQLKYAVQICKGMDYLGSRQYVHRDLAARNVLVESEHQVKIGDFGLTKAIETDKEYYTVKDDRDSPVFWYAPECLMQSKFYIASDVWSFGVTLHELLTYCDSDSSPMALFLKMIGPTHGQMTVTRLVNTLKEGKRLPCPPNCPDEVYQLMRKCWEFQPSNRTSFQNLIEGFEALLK

Compound	IC50 [1] [nM]	IC50 [2] [nM]	IC50 [3] [nM]	IC50 [4] [nM]
Nc1cc2ccc1-c1ccnc(n1)Nc1ccc(Br)c(c1)COCCCCNC2=O [Example 90, 1^2-amino-4^4-bromo-6-oxa-3,11-diaza-2(4,2)-pyrimidina-1(1,4),4(1,3)-di-benzenacyclododecaphan-12-one]	> 10000	101 to 1000	11 to 100	101 to 1000
COc1cnc2nc1-c1ccc(c(F)c1)C(=O)NCCCCOCc1cc(ccc1N1CCOCC1)N2 [Example 58, 1^3-fluoro-2^5-methoxy-4^4-morpholin-6-oxa-3,11-diaza-2(4,2)-pyrimidina-1(1,4),4(1,3)-dibenzenacyclodode-caphan-12-one]	101 to 1000	11 to 100	11 to 100	11 to 100
COc1cc(F)cc(F)c1COc1ccc2cc1COCCCCNC(=O)c1ccc(c(N)c1)-c1ccnc(n1)N2 [Example 183, 1^2-amino-4^4-((2,4-difluoro-6-meth-oxybenzyl)oxy)-6-oxa-3,11-diaza-2(4,2)-pyrimidina-1(1,4),4(1,3)-di-benzenacyclododecaphan-12-one]	1000 to 10000	101 to 1000	< 10	1000 to 10000
O=C1NCCCCOCc2cc(ccc2OCC2COC2)Nc2nccc(n2)-c2ccc1cc2[N+](=O)[O-] [Example 163, 1^2-nitro-4^4-(oxetan-3-ylmethoxy)-6-oxa-3,11-diaza-2(4,2)-pyrimidina-1(1,4),4(1,3)-dibenzenacyclo-dodecaphan-12-one]	> 10000	1000 to 10000	1000 to 10000	1000 to 10000
Nc1cc2ccc1-c1ccnc(n1)Nc1ccc(Oc3ccccc3)c(c1)COCCCCNC2=O [Example 96, 1^2-amino-4^4-phenoxy-6-oxa-3,11-diaza-2(4,2)-pyrimidin-1(1,4),4(1,3)-dibenzenacyclododecaphan-12-one]	> 10000	1000 to 10000	11 to 100	1000 to 10000
COc1cnc2nc1-c1ccc(cc1)C(=O)NCCCCOCc1cc(ccc1N1CCOCC1)N2 [Example 26, 2^5-methoxy-4^4-morpholin-6-oxa-3,11-diaza-2(4,2)-pyrimidina-1(1,4),4(1,3)-dibenzenacyclododecaphan-12-one]	101 to 1000	11 to 100	11 to 100	101 to 1000
O=C1NCCCCCCOCc2cc(ccc2N2CCOCC2)Nc2nccc(n2)-c2ccc1cc2[N+](=O)[O-] [Example 56, 1^2-nitro-4^4-morpholin-6-oxa-3,13-di-aza-2(4,2)-pyrimidina-1(1,4),4(1,3)-dibenzenacyclotetradecaphan-14-one]	> 10000	1000 to 10000	1000 to 10000	> 10000
O=C1NCCCCOCc2cc(cc(F)c2F)Nc2nccc(n2)-c2ccc1cc2[N+](=O)[O-] [Example 93, 4^4,4^5-difluoro-1^2-nitro-6-oxa-3,11-di-aza-2(4,2)-pyrimidina-1(1,4),4(1,3)-dibenzenacyclododecaphan-12-one]	> 10000	1000 to 10000	101 to 1000	1000 to 10000
O=C1NCCCCOCc2cc(ccc2Cl)Nc2nccc(n2)-c2ccc1cc2[N+](=O)[O-] [Example 60, 1^2-nitro-4^4-chloro-6-oxa-3,11-diaza-2(4,2)-pyrimidina-1(1,4),4(1,3)-di-benzenacyclododecaphan-12-one]	1000 to 10000	101 to 1000	101 to 1000	101 to 1000
O=C1NCCCCOCc2cc(cc(N3CCOCC3)c2)Nc2nccc(n2)-c2ccc1cc2[N+](=O)[O-] [Example 51, 1^2-nitro-4^5-morpholin-6-oxa-3,11-di-aza-2(4,2)-pyrimidina-1(1,4),4(1,3)-dibenzenacyclododecaphan-12-one]	> 10000	1000 to 10000	101 to 1000	1000 to 10000
O=C1NCCCCOCc2cc(ccc2Br)Nc2nccc(n2)-c2ccc1cc2[N+](=O)[O-] [Example 89, 4^4-bromo-1^2-nitro-6-oxa-3,11-diaza-2(4,2)-pyrimidina-1(1,4),4(1,3)-di-benzenacyclododecaphan-12-one]	> 10000	1000 to 10000	1000 to 10000	1000 to 10000
O=C1NCCCCOCc2cc(ccc2OC2CCCOC2)Nc2nccc(n2)-c2ccc1cc2[N+](=O)[O-] (stereo not shown) [Example 113, 1^2-nitro-4^4-((tetrahydro-2H-pyran-3-yl)oxy)-6-oxa-3,11-diaza-2(4,2)-pyrimidina-1(1,4),4(1,3)-dibenzena-cyclododecaphan-12-one]	> 10000	1000 to 10000	101 to 1000	1000 to 10000
Nc1cc2ccc1-c1ccnc(n1)Nc1ccc(OCC3COC3)c(c1)COc1ccc(cc1)NC2=O [Example 214, 1-amino-4^4-(oxetan-3-ylmethoxy)-6-oxa-3,8-diaza-2(4,2)-pyrimidina-1,7(1,4)4(1,3)-tribenzenacyclonona-phane-9-one]	1000 to 10000	101 to 1000	11 to 100	1000 to 10000
COc1cccc(F)c1COc1ccc2cc1COCCC(C)CNC(=O)c1ccc(c(N)c1)-c1ccnc(n1)N2 (stereo not shown) [Example 182, 1^2-amino-4^4-((2-fluoro-6-methoxy-benzyl)oxy)-9-methyl-6-oxa-3,11-diaza-2(4,2)-pyrimidina-1(1,4),4(1,3)-dibenzenacyclododecaphan-12-one]	1000 to 10000	101 to 1000	< 10	1000 to 10000
CC(C)Oc1ccc2cc1COCC[C@H](C)CNC(=O)c1ccc(c(N)c1)-c1ccnc(n1)N2 [Example 189, (S)-1^2-amino-4^4-isopropoxy-9-meth-yl-6-oxa-3,11-diaza-2(4,2)-pyrimi-dina-1(1,4),4(1,3)-dibenzenacyclo-dodecaphan-12-one]	> 10000	101 to 1000	11 to 100	101 to 1000
Nc1cc2ccc1-c1ccnc(n1)Nc1ccc(N3CCOCC3)c(c1)COCCCCNC2=O [Example 31, 1^2-amino-4^4-morpholin-6-oxa-3,11-diaza-2(4,2)-pyrimidina-1(1,4),4(1,3)-dibenzenacyclododecaphan-12-one]	101 to 1000	11 to 100	< 10	101 to 1000
O=C1NCCCCOCc2cccc(c2)Nc2ncc(Cl)c(n2)-c2ccc1cc2Cl [Example 18, 1^2,2^5-dichloro-6-oxa-3,11-diaza-2(4,2)-pyrimidina-1(1,4),4(1,3)-dibenz-enacyclododecaphan-12-one]	> 10000	101 to 1000	101 to 1000	1000 to 10000
O=C1NCCCCOCc2cc(ccc2N2CCOCC2)Nc2nccc(n2)-c2ccc1cc2C(F)(F)F [Example 19, 4^4-morpholin-1^2-trifluoromethyl-6-oxa-3,11-diaza-2(4,2)-pyrimi-dina-1(1,4),4(1,3)-dibenzenacyclododecaphan-12-one]	> 10000	1000 to 10000	1000 to 10000	1000 to 10000
CC1CCNC(=O)c2ccc(c(N)c2)-c2ccnc(n2)Nc2ccc(OCC3CCCC3)c(c2)COC1 (stereo not shown) [Example 131, 1^2-amino-4^4-(cyclopentylmethoxy)-8-methyl-6-oxa-3,11-diaza-2(4,2)-pyrimidina-1(1,4),4(1,3)-dibenzena-cyclododecaphan-12-one]	> 10000	101 to 1000	11 to 100	1000 to 10000
